Our source for the T/C values is PubChem BioAssay AID342 (DTP/NCI, 2004).

Values joined by “and” are separate entries in the source; they are usually repeats but may differ in a detail not shown here. Equal values may be shown once.

This test relates to Swiss mice, Sarcoma 180 sc, mean tumor weight T/C. The test can be described thus: NCI In Vivo Anticancer Drug Screen. Data for tumor model Sarcoma 180 (subcutaneous) in Swiss mice. To be noted: endpoint: mean tumor weight, higher = larger tumour. In a few lines: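 Mice bearing transplanted tumors were treated with compound, and survival or tumor size was measured. Values are expressed as the treated-group measurement (T) divided by the vehicle-treated control measurement (C).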

Turning to `C[C@@H]1C[C@H]2CC[C@H](O2)[C@H](C)C(=O)O[C@@H](C)C[C@@H]2CC[C@@H](O2)[C@@H](C)C(=O)O[C@H](C)C[C@H]2CC[C@H](O2)[C@H](C)C(=O)O[C@@H](C)C[C@@H]2CC[C@@H](O2)[C@@H](C)C(=O)O1`, the T/C – broadly, the result in the treated group divided by that in the control group, in per cent – runs as follows: (dose: 1.25 mg/kg/injection, schedule: Q#A X014 (ip), vehicle: olive oil, sesame oil, peanut oil) 96 % of control; (dose: 2.5 mg/kg/injection, schedule: Q#A X014 (ip), vehicle: olive oil, sesame oil, peanut oil) 88 % of control; (dose: 5.0 mg/kg/injection, schedule: Q#A X014 (ip), vehicle: olive oil, sesame oil, peanut oil) 90 % of control; (dose: 5.0 mg/kg/injection, schedule: Q#A X014 (sc), vehicle: olive oil, sesame oil, peanut oil) 82 % of control; (dose: 9.0 mg/kg/injection, schedule: Q#A X014 (ip), vehicle: carboxymethylcellulose (CMC)) 89 % of control; (dose: 10.0 mg/kg/injection, schedule: Q#A X014 (ip), vehicle: olive oil, sesame oil, peanut oil) 73 % of control and 83 % of control. The T/C was 81 % of control (dose: 10.0 mg/kg/injection, schedule: Q#A X014 (sc), vehicle: olive oil, sesame oil, peanut oil); 80 % of control (dose: 15.0 mg/kg/injection, schedule: Q#A X014 (sc), vehicle: olive oil, sesame oil, peanut oil); 111 % of control (dose: 18.0 mg/kg/injection, schedule: Q#A X014 (ip), vehicle: carboxymethylcellulose (CMC)); 57 % of control (dose: 20.0 mg/kg/injection, schedule: Q#A X014 (ip), vehicle: carboxymethylcellulose (CMC)); 53 % of control (dose: 25.0 mg/kg/injection, schedule: Q#A X014 (ip), vehicle: carboxymethylcellulose (CMC)); 77 % of control (dose: 25.0 mg/kg/injection, schedule: Q#A X014 (oral), vehicle: methylcellulose (MC)). The T/C is 89 % of control (dose: 30.0 mg/kg/injection, schedule: Q#A X014 (ip), vehicle: carboxymethylcellulose (CMC)); 50 % of control (dose: 30.0 mg/kg/injection, schedule: Q#A X014 (sc), vehicle: olive oil, sesame oil, peanut oil); 60 % of control (dose: 35.0 mg/kg/injection, schedule: Q#A X014 (ip), vehicle: carboxymethylcellulose (CMC)); 26 % of control (dose: 35.0 mg/kg/injection, schedule: Q#A X014 (sc), vehicle: olive oil, sesame oil, peanut oil); 64 % of control (dose: 40.0 mg/kg/injection, schedule: Q#A X014 (ip), vehicle: carboxymethylcellulose (CMC)); 32 % of control (dose: 40.0 mg/kg/injection, schedule: Q#A X014 (sc), vehicle: olive oil, sesame oil, peanut oil). Moreover, the T/C is 114 % of control (dose: 50.0 mg/kg/injection, schedule: Q#A X014 (oral), vehicle: methylcellulose (MC)); 26 % of control (dose: 50.0 mg/kg/injection, schedule: Q#A X014 (sc), vehicle: olive oil, sesame oil, peanut oil); 106 % of control (dose: 54.0 mg/kg/injection, schedule: Q01DX007 (sc), vehicle: methylcellulose (MC)); 77 % of control (dose: 80.0 mg/kg/injection, schedule: Q01DX007 (sc), vehicle: methylcellulose (MC)); 93 % of control (dose: 100.0 mg/kg/injection, schedule: Q#A X014 (oral), vehicle: methylcellulose (MC)); 71 % of control (dose: 108.0 mg/kg/injection, schedule: Q03DX003 (sc), vehicle: methylcellulose (MC)). The T/C is, setting by setting: (dose: 120.0 mg/kg/injection, schedule: Q01DX007 (sc), vehicle: methylcellulose (MC)) 101 % of control; (dose: 162.0 mg/kg/injection, schedule: Q03DX003 (sc), vehicle: methylcellulose (MC)) 115 % of control; (dose: 180.0 mg/kg/injection, schedule: Q01DX007 (sc), vehicle: methylcellulose (MC)) 100 % of control; (dose: 200.0 mg/kg/injection, schedule: Q#A X014 (oral), vehicle: methylcellulose (MC)) 95 % of control; (dose: 240.0 mg/kg/injection, schedule: Q03DX003 (sc), vehicle: methylcellulose (MC)) 109 % of control; (dose: 360.0 mg/kg/injection, schedule: Q03DX003 (sc), vehicle: methylcellulose (MC)) 102 % of control. The T/C (dose: 540.0 mg/kg/injection, schedule: Q03DX003 (sc), vehicle: methylcellulose (MC)) was 152 % of control.

As to `Nc1nc(Cl)ncc1F`, the T/C runs as follows: (dose: 25.0 mg/kg/injection, schedule: Q01DX007 (ip), vehicle: saline) 101 % of control; (dose: 50.0 mg/kg/injection, schedule: Q01DX007 (ip), vehicle: saline) 83 % of control; (dose: 100.0 mg/kg/injection, schedule: Q01DX007 (ip), vehicle: saline) 92 % of control.

With `Nc1nc2n[nH]nc2c(=O)[nH]1`, the T/C is 118 % of control (dose: 12.5 mg/kg/injection, schedule: Q01DX007 (ip), vehicle: other); 101 % of control (dose: 12.5 mg/kg/injection, schedule: Q#A X014 (ip), vehicle: other); 78 % of control (dose: 15.75 mg/kg/injection, schedule: Q01DX007 (ip), vehicle: other); 85 % of control (dose: 25.0 mg/kg/injection, schedule: Q01DX007 (ip), vehicle: other); 68 % of control (dose: 25.0 mg/kg/injection, schedule: Q#A X014 (ip), vehicle: other); 109 % of control (dose: 31.5 mg/kg/injection, schedule: Q01DX007 (ip), vehicle: carboxymethylcellulose (CMC)). The T/C was 69 % of control (dose: 31.5 mg/kg/injection, schedule: Q01DX007 (ip), vehicle: other); 43 % of control (dose: 31.5 mg/kg/injection, schedule: Q01DX007 (ip), vehicle: water); 70 % of control (dose: 50.0 mg/kg/injection, schedule: Q01DX007 (ip), vehicle: other); 38 % of control (dose: 50.0 mg/kg/injection, schedule: Q#A X014 (ip), vehicle: other); 84 % of control (dose: 50.4 mg/kg/injection, schedule: Q01DX007 (ip), vehicle: other); 58 % of control (dose: 63.0 mg/kg/injection, schedule: Q01DX007 (ip), vehicle: carboxymethylcellulose (CMC)). Besides, the T/C (dose: 63.0 mg/kg/injection, schedule: Q01DX007 (ip), vehicle: other) is 54 % of control and 60 % of control; the T/C (dose: 63.0 mg/kg/injection, schedule: Q01DX007 (ip), vehicle: water) was 57 % of control; the T/C (dose: 84.0 mg/kg/injection, schedule: Q01DX007 (ip), vehicle: other) was 63 % of control; the T/C (dose: 94.5 mg/kg/injection, schedule: Q01DX007 (ip), vehicle: carboxymethylcellulose (CMC)) is 54 % of control; the T/C (dose: 94.5 mg/kg/injection, schedule: Q01DX007 (ip), vehicle: water) was 15 % of control; the T/C (dose: 100.0 mg/kg/injection, schedule: Q01DX007 (ip), vehicle: other) was 95 % of control and 116 % of control. For the same compound, the T/C runs as follows: (dose: 100.0 mg/kg/injection, schedule: Q#A X014 (ip), vehicle: other) 64 % of control; (dose: 126.0 mg/kg/injection, schedule: Q01DX007 (ip), vehicle: carboxymethylcellulose (CMC)) 39 % of control; (dose: 126.0 mg/kg/injection, schedule: Q01DX007 (ip), vehicle: other) 33 % of control; (dose: 126.0 mg/kg/injection, schedule: Q01DX007 (ip), vehicle: water) 18 % of control; (dose: 200.0 mg/kg/injection, schedule: Q01DX007 (ip), vehicle: other) 70 % of control; (dose: 400.0 mg/kg/injection, schedule: Q01DX007 (ip), vehicle: other) 52 % of control.

Take `O=C1C=CC2(CCC23C=CC(=O)O3)O1` (centres undefined): under “dose: 40.0 mg/kg/injection, schedule: Q01DX007 (ip), vehicle: saline”, the T/C is 88 % of control.

Regarding `CN(C)[C@@H]1C(=O)C(C(=O)NCc2nc3[nH]cnc(=S)c3[nH]2)=C(O)[C@@]2(O)C(=O)C3=C(O)c4c(O)cccc4[C@@](C)(O)[C@H]3C[C@@H]12`, the T/C by setting is: (dose: 14.0 mg/kg/injection, schedule: Q01DX007 (ip), vehicle: carboxymethylcellulose (CMC)) 71 % of control; (dose: 28.0 mg/kg/injection, schedule: Q01DX007 (ip), vehicle: carboxymethylcellulose (CMC)) 58 % of control; (dose: 56.0 mg/kg/injection, schedule: Q01DX007 (ip), vehicle: carboxymethylcellulose (CMC)) 54 % of control and 62 % of control; (dose: 224.0 mg/kg/injection, schedule: Q01DX007 (ip), vehicle: carboxymethylcellulose (CMC)) 29 % of control.

As to `Cc1ccc(NC(C(=O)c2ccccc2)c2ccccc2)cc1` (centres undefined), the T/C was 39 % of control (dose: 150.0 mg/kg/injection, schedule: Q01DX007 (ip), vehicle: saline) and 20 % of control (dose: 225.0 mg/kg/injection, schedule: Q01DX007 (ip), vehicle: saline).

Take `COc1cccc2c1-c1ccccc1C2`: the T/C (dose: 62.5 mg/kg/injection, schedule: Q01DX007 (ip), vehicle: carboxymethylcellulose (CMC)) was 151 % of control and the T/C (dose: 250.0 mg/kg/injection, schedule: Q01DX007 (ip), vehicle: carboxymethylcellulose (CMC)) was 114 % of control.

Consider `NCC(O)c1ccc(O)c(O)c1` (centres undefined), for which the T/C is 84 % of control (dose: 3.1 mg/kg/injection, schedule: Q01DX007 (ip), vehicle: saline); 57 % of control and 77 % of control (dose: 12.5 mg/kg/injection, schedule: Q01DX007 (ip), vehicle: saline).
